Laboratory results reported in PubChem BioAssay AID328 (DTP/NCI, 2004).
Several values for one entry are separate records, joined by “and”; a condition that tells them apart may be missing. Equal values may be shown once. Inconclusive results and toxic doses are left out.

System: BDF1 mice, P388 leukemia ip, median survival T/C
Assay: NCI In Vivo Anticancer Drug Screen. Data for tumor model P388 Leukemia (intraperitoneal) in B6D2F1 (BDF1) mice
Settings: endpoint: median survival time, higher = longer survival
Procedure, shortened: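 Compound-treated tumour-bearing mice were compared with vehicle-treated controls. Survival was recorded, and the value is the treated-group measurement divided by the control-group measurement (T/C).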

[1] = dose: 25.0 mg/kg/injection, schedule: Q01DX009 (ip), vehicle: saline with Tween-80
[2] = dose: 50.0 mg/kg/injection, schedule: Q01DX009 (ip), vehicle: saline with Tween-80
[3] = dose: 100.0 mg/kg/injection, schedule: Q01DX009 (ip), vehicle: saline with Tween-80
[4] = dose: 100.0 mg/kg/injection, schedule: Q04DX003 (ip), vehicle: saline with Tween-80
[5] = dose: 200.0 mg/kg/injection, schedule: Q01DX009 (ip), vehicle: saline with Tween-80
[6] = dose: 400.0 mg/kg/injection, schedule: Q04DX003 (ip), vehicle: saline with Tween-80
[7] = dose: 100.0 mg/kg/injection, schedule: Q04DX003 (ip), vehicle: saline
[8] = dose: 200.0 mg/kg/injection, schedule: Q04DX003 (ip), vehicle: saline

CSC(=S)NN=C1CCCCC1
T/C (dose: 0.78 mg/kg/injection, schedule: Q01DX009 (ip), vehicle: saline with Tween-80): 99 % of control
T/C (dose: 1.56 mg/kg/injection, schedule: Q01DX009 (ip), vehicle: saline with Tween-80): 105 % of control
T/C (dose: 3.13 mg/kg/injection, schedule: Q01DX009 (ip), vehicle: saline with Tween-80): 104 % of control
T/C (dose: 6.25 mg/kg/injection, schedule: Q01DX009 (ip), vehicle: saline with Tween-80): 102 % of control

CCOC(=O)CCCN(c1sc(C)c(C)c1C(=O)OCC)S(=O)(=O)c1ccc(C)cc1
T/C [1]: 104 % of control
T/C [2]: 109 % of control
T/C (dose: 50.0 mg/kg/injection, schedule: Q04DX003 (ip), vehicle: saline with Tween-80): 91 % of control
T/C [3]: 104 % of control
T/C [4]: 87 % of control
T/C [5]: 95 % of control
T/C (dose: 200.0 mg/kg/injection, schedule: Q04DX003 (ip), vehicle: saline with Tween-80): 95 % of control
T/C [6]: 87 % of control

Nc1nc(N)c2nc(Sc3ccc(Cl)cc3)c(-c3ccccc3)nc2n1
T/C [4]: 88 % of control
T/C [6]: 99 % of control

CC(=O)Oc1cc2c(cc1OC(C)=O)C(=O)CCC=C2
T/C (dose: 12.5 mg/kg/injection, schedule: Q01DX009 (ip), vehicle: saline with Tween-80): 114 % of control
T/C [1]: 109 % of control
T/C [2]: 104 % of control

Cc1cc(=O)oc2cc3oc(N(C)c4ccccc4)nc(=O)c3cc12
T/C (dose: 100.0 mg/kg/injection, schedule: Q04DX002 (ip), vehicle: saline with Tween-80): 100 % of control
T/C (dose: 200.0 mg/kg/injection, schedule: Q04DX002 (ip), vehicle: saline with Tween-80): 92 % of control
T/C (dose: 400.0 mg/kg/injection, schedule: Q04DX002 (ip), vehicle: saline with Tween-80): 102 % of control

O=S(=O)(O)c1cccc2cccc(Cl)c12
T/C [7]: 100 % of control
T/C [8]: 95 % of control
T/C (dose: 400.0 mg/kg/injection, schedule: Q04DX003 (ip), vehicle: saline): 100 % of control

CC(=O)OC1CC2CC1C1C3C=CC(C3)C21 (stereo not given)
T/C [3]: 109 % of control

Oc1cc(CN(CCCl)CCCl)c(O)cc1CN(CCCl)CCCl
T/C (dose: 0.63 mg/kg/injection, schedule: Q01DX010 (ip), vehicle: saline): 170 % of control
T/C (dose: 1.25 mg/kg/injection, schedule: Q01DX010 (ip), vehicle: saline): 163 % of control and 210 % of control
T/C (dose: 2.5 mg/kg/injection, schedule: Q01DX010 (ip), vehicle: saline): 177 % of control and 220 % of control
T/C (dose: 5.0 mg/kg/injection, schedule: Q01DX010 (ip), vehicle: saline): 165 % of control

COc1cc2c(c(OC)c1OC)-c1cc3c(cc1[C@@H](O)[C@@H]1COC(=O)[C@@H]21)OCO3
T/C (dose: 6.2 mg/kg/injection, schedule: Q01DX009 (ip), vehicle: saline): 90 % of control
T/C (dose: 9.3 mg/kg/injection, schedule: Q01DX009 (ip), vehicle: saline): 86 % of control
T/C (dose: 14.0 mg/kg/injection, schedule: Q01DX009 (ip), vehicle: saline): 109 % of control
T/C (dose: 21.0 mg/kg/injection, schedule: Q01DX009 (ip), vehicle: saline): 100 % of control

S=C1N=C2c3ccccc3C2C(=S)S1 (stereo not given)
T/C [2]: 109 % of control
T/C [3]: 98 % of control
T/C (dose: 150.0 mg/kg/injection, schedule: Q01DX009 (ip), vehicle: saline with Tween-80): 94 % of control

CCNC(C)(C)C(=O)c1ccco1
T/C [7]: 100 % of control
T/C [8]: 100 % of control

CO/C=C1\Cc2cc(OC)c(OC)cc2C1=O
T/C [3]: 90 % of control
T/C [5]: 100 % of control
T/C (dose: 400.0 mg/kg/injection, schedule: Q01DX009 (ip), vehicle: saline with Tween-80): 109 % of control

CCCCCCCCCCCc1n(Cc2ccccc2)cc[n+]1C
T/C (dose: 0.75 mg/kg/injection, schedule: Q01DX009 (ip), vehicle: saline): 117 % of control
T/C (dose: 1.5 mg/kg/injection, schedule: Q01DX009 (ip), vehicle: saline): 114 % of control
T/C (dose: 1.5 mg/kg/injection, schedule: Q04DX003 (ip), vehicle: saline): 100 % of control
T/C (dose: 3.0 mg/kg/injection, schedule: Q01DX009 (ip), vehicle: saline): 114 % of control
T/C (dose: 3.0 mg/kg/injection, schedule: Q04DX003 (ip), vehicle: saline): 115 % of control

O=C(Nc1cccc(Cl)c1)C1CCCC1=Nc1cccc(Cl)c1 (stereo not given)
T/C [2]: 100 % of control
T/C [3]: 106 % of control

C[C@@H](O)[C@@H](O)c1cnc2nc(N)[nH]c(=O)c2n1
T/C (dose: 50.0 mg/kg/injection, schedule: Q01DX005 (ip), vehicle: saline with Tween-80): 100 % of control
T/C (dose: 100.0 mg/kg/injection, schedule: Q01DX005 (ip), vehicle: saline with Tween-80): 91 % of control
T/C (dose: 200.0 mg/kg/injection, schedule: Q01DX005 (ip), vehicle: saline with Tween-80): 115 % of control
